Test results published in ChEMBL document CHEMBL1201862, “PubChem BioAssay data set” (2004).
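Tested at 5 concentrations; 48 h exposure; 96-well plates; endpoints linearly interpolated, else capped at highest concentration. Here, GI50 denotes the concentration required for 50% inhibition of growth.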 Calls of active or inactive are those of the source. Cut-off read from the data, not from the text of the source: active = GI50 up to about 1.1 µM and inactive = higher.

Experiments:
Test in all cases: DTP human tumour cell line panel, 48 h
[1] = tested on: BT-549
[2] = tested on: OVCAR-4
[3] = tested on: HOP-92
[4] = tested on: CAKI-1
[5] = tested on: SK-MEL-28
[6] = tested on: MDA-N
[7] = tested on: SW-620
[8] = tested on: UACC-257
[9] = tested on: NCI-H522
[10] = tested on: MOLT-4
[11] = tested on: CCRF-CEM
[12] = tested on: SK-MEL-2
[13] = tested on: HCT-15
[14] = tested on: LOX IMVI
[15] = tested on: SNB-19
[16] = tested on: COLO 205
[17] = tested on: SF-268
[18] = tested on: KM12
[19] = tested on: IGROV-1
[20] = tested on: NCI/ADR-RES
[21] = tested on: SK-MEL-5
[22] = tested on: M14
[23] = tested on: Hs-578T
[24] = tested on: MDA-MB-231
[25] = tested on: RXF 393
[26] = tested on: K562
[27] = tested on: U-251
[28] = tested on: Malme-3M
[29] = tested on: OVCAR-8
[30] = tested on: A549
[31] = tested on: NCI-H23
[32] = tested on: EKVX
[33] = tested on: SK-OV-3
[34] = tested on: SF-295
[35] = tested on: HCT-116
[36] = tested on: OVCAR-5
[37] = tested on: HT-29
[38] = tested on: MDA-MB-435
[39] = tested on: TK-10
[40] = tested on: SNB-75
[41] = tested on: HOP-62
[42] = tested on: UACC-62
[43] = tested on: UO-31
[44] = tested on: PC-3
[45] = tested on: OVCAR-3
[46] = tested on: 786-0
[47] = tested on: RPMI-8226
[48] = tested on: NCI-H226
[49] = tested on: ACHN
[50] = tested on: SN12C
[51] = tested on: MCF7
[52] = tested on: HL-60
[53] = tested on: A498
[54] = tested on: SR
[55] = tested on: SF-539
[56] = tested on: DU-145
[57] = tested on: NCI-H460
[58] = tested on: T47D
[59] = tested on: HCC 2998

SMILES: O=C(O)c1cc2ccccc2c(/N=N/c2c([N+](=O)[O-])cc([N+](=O)[O-])cc2S(=O)(=O)O)c1O
- GI50 [1]: > 100 µM (inactive)
- GI50 [2]: > 100 µM (inactive)
- GI50 [3]: > 100 µM (inactive)
- GI50 [4]: > 100 µM (inactive)
- GI50 [5]: > 100 µM (inactive)
- GI50 [6]: > 100 µM (inactive)
- GI50 [7]: > 100 µM (inactive)
- GI50 [8]: > 100 µM (inactive)
- GI50 [9]: > 100 µM (inactive)
- GI50 [10]: > 100 µM (inactive)
- GI50 [11]: > 100 µM (inactive)
- GI50 [12]: > 100 µM (inactive)
- GI50 [13]: > 100 µM
- GI50 [14]: > 100 µM (inactive)
- GI50 [15]: > 100 µM (inactive)
- GI50 [16]: > 100 µM (inactive)
- GI50 [17]: > 100 µM (inactive)
- GI50 [18]: > 100 µM (inactive)
- GI50 [19]: > 100 µM (inactive)
- GI50 [20]: > 100 µM (inactive)
- GI50 [21]: > 100 µM (inactive)
- GI50 [22]: > 100 µM (inactive)
- GI50 [23]: > 100 µM (inactive)
- GI50 [24]: > 100 µM (inactive)
- GI50 [25]: > 100 µM (inactive)
- GI50 [26]: > 100 µM (inactive)
- GI50 [27]: > 100 µM (inactive)
- GI50 [28]: > 100 µM (inactive)
- GI50 [29]: > 100 µM (inactive)
- GI50 [30]: > 100 µM (inactive)
- GI50 [31]: > 100 µM (inactive)
- GI50 [32]: > 100 µM (inactive)
- GI50 [33]: > 100 µM (inactive)
- GI50 [34]: > 100 µM (inactive)
- GI50 [35]: > 100 µM (inactive)
- GI50 [36]: > 100 µM (inactive)
- GI50 [37]: > 100 µM (inactive)
- GI50 [38]: > 100 µM (inactive)
- GI50 [39]: > 100 µM (inactive)
- GI50 [40]: > 100 µM (inactive)
- GI50 [41]: > 100 µM (inactive)
- GI50 [42]: > 100 µM (inactive)
- GI50 [43]: > 100 µM (inactive)
- GI50 [44]: > 100 µM (inactive)
- GI50 [45]: > 100 µM (inactive)
- GI50 [46]: > 100 µM (inactive)
- GI50 [47]: > 100 µM (inactive)
- GI50 [48]: > 100 µM (inactive)
- GI50 [49]: > 100 µM (inactive)
- GI50 [50]: > 100 µM (inactive)

SMILES: Fc1ccc(/C(=N/Cc2ccccc2)N2CCOCC2)cc1
- GI50 [1]: > 100 µM (inactive)
- GI50 [4]: > 100 µM (inactive)
- GI50 [5]: > 100 µM (inactive)
- GI50 [6]: > 100 µM (inactive)
- GI50 [7]: > 100 µM (inactive)
- GI50 [51]: > 100 µM (inactive)
- GI50 [8]: > 100 µM (inactive)
- GI50 [10]: > 100 µM (inactive)
- GI50 [11]: > 100 µM (inactive)
- GI50 [12]: > 100 µM (inactive)
- GI50 [13]: > 100 µM
- GI50 [14]: > 100 µM (inactive)
- GI50 [15]: > 100 µM (inactive)
- GI50 [52]: > 100 µM (inactive)
- GI50 [16]: > 100 µM (inactive)
- GI50 [17]: > 100 µM (inactive)
- GI50 [18]: > 100 µM (inactive)
- GI50 [19]: > 100 µM (inactive)
- GI50 [20]: > 100 µM (inactive)
- GI50 [21]: > 100 µM (inactive)
- GI50 [53]: > 100 µM (inactive)
- GI50 [22]: > 100 µM (inactive)
- GI50 [23]: > 100 µM (inactive)
- GI50 [24]: > 100 µM (inactive)
- GI50 [25]: > 100 µM (inactive)
- GI50 [26]: > 100 µM (inactive)
- GI50 [27]: > 100 µM (inactive)
- GI50 [28]: > 100 µM (inactive)
- GI50 [29]: > 100 µM (inactive)
- GI50 [31]: > 100 µM (inactive)
- GI50 [32]: > 100 µM (inactive)
- GI50 [33]: > 100 µM (inactive)
- GI50 [34]: > 100 µM (inactive)
- GI50 [35]: > 100 µM (inactive)
- GI50 [36]: > 100 µM (inactive)
- GI50 [54]: > 100 µM (inactive)
- GI50 [37]: > 100 µM (inactive)
- GI50 [38]: > 100 µM (inactive)
- GI50 [39]: > 100 µM (inactive)
- GI50 [55]: > 100 µM (inactive)
- GI50 [40]: > 100 µM (inactive)
- GI50 [56]: > 100 µM (inactive)
- GI50 [41]: > 100 µM (inactive)
- GI50 [42]: > 100 µM (inactive)
- GI50 [43]: 67.5 µM (inactive)
- GI50 [44]: > 100 µM (inactive)
- GI50 [45]: > 100 µM (inactive)
- GI50 [46]: > 100 µM (inactive)
- GI50 [47]: > 100 µM (inactive)
- GI50 [48]: > 100 µM (inactive)
- GI50 [49]: > 100 µM (inactive)
- GI50 [50]: > 100 µM (inactive)
- GI50 [57]: > 100 µM (inactive)

SMILES: CC1(C)CCC[C@]2(C)[C@@H]1CC[C@@]13O[C@@H]1C1=C(CO)C(=O)O[C@]14O[C@@H]4[C@@H]23
- GI50 [1]: 14.7 µM (inactive)
- GI50 [2]: 8.24 µM (inactive)
- GI50 [3]: 14 µM (inactive)
- GI50 [4]: 12.8 µM (inactive)
- GI50 [5]: 15.6 µM (inactive)
- GI50 [6]: 5.78 µM (inactive)
- GI50 [7]: 12.8 µM (inactive)
- GI50 [51]: 15.3 µM (inactive)
- GI50 [8]: 14 µM (inactive)
- GI50 [9]: 7.55 µM (inactive)
- GI50 [10]: 15.1 µM (inactive)
- GI50 [12]: 13.9 µM (inactive)
- GI50 [13]: 14.5 µM
- GI50 [14]: 10.8 µM (inactive)
- GI50 [58]: 22 µM (inactive)
- GI50 [15]: 14.8 µM (inactive)
- GI50 [16]: 17.7 µM (inactive)
- GI50 [17]: 15 µM (inactive)
- GI50 [18]: 18 µM (inactive)
- GI50 [19]: 13.3 µM (inactive)
- GI50 [20]: 14.9 µM (inactive)
- GI50 [21]: 13.2 µM (inactive)
- GI50 [53]: 17.3 µM (inactive)
- GI50 [22]: 10.8 µM (inactive)
- GI50 [24]: 15.7 µM (inactive)
- GI50 [25]: 8.71 µM (inactive)
- GI50 [26]: > 41 µM (inactive)
- GI50 [27]: 13.8 µM (inactive)
- GI50 [28]: 17 µM (inactive)
- GI50 [29]: 12.9 µM (inactive)
- GI50 [30]: 7.98 µM (inactive)
- GI50 [31]: 11.7 µM (inactive)
- GI50 [32]: 11.9 µM (inactive)
- GI50 [33]: 16.7 µM (inactive)
- GI50 [34]: 16.1 µM (inactive)
- GI50 [59]: 19.2 µM (inactive)
- GI50 [35]: 12.4 µM (inactive)
- GI50 [36]: 15.7 µM (inactive)
- GI50 [54]: 4.61 µM (inactive)
- GI50 [37]: 12.4 µM (inactive)
- GI50 [38]: 10.4 µM (inactive)
- GI50 [39]: 17.6 µM (inactive)
- GI50 [55]: 17.3 µM (inactive)
- GI50 [40]: 15.2 µM (inactive)
- GI50 [56]: 14.3 µM (inactive)
- GI50 [41]: 17.8 µM (inactive)
- GI50 [42]: 10.9 µM (inactive)
- GI50 [43]: 6.05 µM (inactive)
- GI50 [44]: 9.1 µM (inactive)
- GI50 [45]: 13.2 µM (inactive)
- GI50 [46]: 15.2 µM (inactive)
- GI50 [47]: > 100 µM (inactive)
- GI50 [48]: 19 µM (inactive)
- GI50 [49]: 14.3 µM (inactive)
- GI50 [50]: 5.9 µM (inactive)
- GI50 [57]: 14.9 µM (inactive)
